Assay results: patent US20170189357A1, “METHODS OF LIMITING MORBIDITY IN HEMOGLOBINOPATHIES” (DUKE UNIVERSITY, priority 2014, published 2017)
Like-named read-outs stand apart in the source and are kept apart here.

Assays:
[1] = test system: sickle RBCs; assay: Sickle RBC adhesion to non-activated and TNFα-activated HUVECs, intermittent flow; assay type: cell-based, human; settings: U0126 10 μM; TNFα-activated HUVECs; shear stress 2 dynes/cm^2; p<0.05
[2] = test system: neutrophils (PMNs); settings: sickle RBCs treated with 10 μM U0126, then epinephrine; co-incubated with PMNs
[3] = test system: ERK; assay: ERK phosphorylation in sickle RBCs exposed to hypoxia (Western blot of membrane ghosts); assay type: cell-based, human; settings: hypoxia 8% oxygen 2 hours
[4] = test system: sickle RBCs; settings: 20 nM epinephrine, non-activated HUVECs
[5] = test system: human normal (AA) RBCs; assay: Normal human RBC adhesion in TNFα-pretreated nude mice, intravital microscopy; settings: normal human RBCs treated ex vivo
Excerpt: FIG. 5 is a set of photographs and graphs showing that ERK in sickle RBCs promotes vaso-occlusion in nude mice in vivo. FIG. 5A, FIG. 5B and FIG. 5C are a set of photographs showing nude mice implanted with dorsal skin-fold window chambers after injection with murine TNFα. […] Vessels without adherent cells appear gray, due to the rapidly moving of fluorescence labeled RBCs. […] FIG. 5D is a graph showing quantification of the fluorescence intensity of video frames of vessel and arteriole segments used to quantify adhesion in venules and arterioles of animals occupied by sickle RBCs (n=5 for each treatment). Adhesion of fluorescently labeled sham-treated sickle RBCs (sham-treated SS) and RDEA119-treated sickle RBCs (RDEA119-treated SS) in all vessels and arterioles recorded presented as fluorescence intensity [fluorescence unit (FU)] of adherent sickle RBCs. FIG. 5E-FIG. 5G are graphs showing the values of at least 180 segments of vessels and arterioles analyzed and averaged among groups of animals (n=5) to represent percentage of vessels occupied by adherent sickle RBCs (FIG. 5E); percentage of vessels with normal blood flow, slow blood flow and no blood flow (FIG. 5F), and percentage of normal flowing vessels (FIG. 5G). […]

[6] = test system: leukocytes; assay: Leukocyte adhesion in transgenic sickle cell mice after TNFα challenge; settings: 0.025, 0.05 and 0.1 mg/kg; versus vehicle
[7] = test system: human sickle RBCs; assay: Human sickle RBC adhesion and vaso-occlusion in TNFα-pretreated nude mice, intravital microscopy; settings: sickle RBCs treated ex vivo
Experimental: FIG. 5 is a set of photographs and graphs showing that ERK in sickle RBCs promotes vaso-occlusion in nude mice in vivo. FIG. 5A, FIG. 5B and FIG. 5C are a set of photographs showing nude mice implanted with dorsal skin-fold window chambers after injection with murine TNFα. Four hours later, intravital microscopic observations of post-capillary venules and arterioles using 10× and 20× magnifications were conducted through the window chamber immediately after infusion of fluorescently labeled human sickle RBCs (n=5) that were sham-treated (FIG. 5A; panels 1, 2, 3 and 4) or treated with the MEK inhibitor RDEA119 (FIG. 5B panels 1, 2 and 3), or human normal (AA) RBCs (n=3) sham-treated (FIG. 5C; two panels on the left) or RDEA119-treated (FIG. 5C; 2 panels on the right). Vessels without adherent cells appear gray, due to the rapidly moving of fluorescence labeled RBCs. Adhesion of human sickle RBCs in enflamed vessels and vaso-occlusion are indicated with arrows and appear as white spots in the vessels. […] Scale bar=50 μm. FIG. 5D is a graph showing quantification of the fluorescence intensity of video frames of vessel and arteriole segments used to quantify adhesion in venules and arterioles of animals occupied by sickle RBCs (n=5 for each treatment). Adhesion of fluorescently labeled sham-treated sickle RBCs (sham-treated SS) and RDEA119-treated sickle RBCs (RDEA119-treated SS) in all vessels and arterioles recorded presented as fluorescence intensity [fluorescence unit (FU)] of adherent sickle RBCs. FIG. 5E-FIG. 5G are graphs showing the values of at least 180 segments of vessels and arterioles analyzed and averaged among groups of animals (n=5) to represent percentage of vessels occupied by adherent sickle RBCs (FIG. 5E); percentage of vessels with normal blood flow, slow blood flow and no blood flow (FIG. 5F), and percentage of normal flowing vessels (FIG. 5G). Error bars show SEM of 5 different experiments for each treatment condition, *: p<0.001 compared to sham-treated sickle RBCs regardless of the vessel diameter within the ranges specified for D, E and G. […]

[8] = test system: sickle cells; assay: Hypoxia-induced sickle cell adhesion to microvascular endothelial cells, intermittent flow; assay type: cell-based, human; settings: hypoxia 8% O2 2 h, then RDEA119; shear stress 1-2 dynes/cm^2
Experimental: Sickle cells were exposed to room air (sham) or hypoxia (H) (8% O2) for 2 h followed by treatment with RDEA119 MEK inhibitor, then washed. SSRBC adhesion to microvascular endothelial cells was tested in intermittent flow condition assays, and results are presented as % adherent SSRBCs at a shear stress of 1-2 dynes/cm^2. […] Error bars show SEM of 3 different experiments.
One of the major pathophysiologic processes in SCD is vasoocclusion in response to hypoxia.

[9] = test system: murine sickle RBCs; settings: for inhibition of murine sickle RBC adhesion: versus vehicle, p<0.0001
[10] = test system: p60-c-Src; assay: p60-c-Src phosphorylation in SSRBCs (Western blot of membrane ghosts); assay type: cell-based, human; settings: 1 μM inhibitor before 1 μg/ml PTx; p<0.0001
Excerpt: (§1) FIG. 10 is a set of figures showing inhibition of Gai protein increased phosphorylation of p72^syk and p60-c-Src tyrosine kinases in intact SSRBCs. FIG. 10A-FIG. 10G show the kinase expression results for twenty μg of membrane protein ghosts (SSRBC ghosts, n=7, SS1, SS2, SS3, SS4, SS5, SS6 and SS7; and normal RBC ghosts, n=7, AA1, AA2, AA3AA4, AA5, AA6 and AA7) were used per lane. FIG. 10A-FIG. 10D show Western blots and corresponding graphs showing the kinase expression results of protein ghosts which were stained with antibodies against phosphorylated p60-c-Src [p-p60-c-Src (SS1, SS2, SS3, SS4; and AA1, AA2, AA3, AA4)] and p60-c-Src [p60-c-Src (SS1, SS2, SS3, SS4, SS5, SS6, SS7, and AA1, AA2, AA3, AA4, AA5, AA6, AA7)]; and phosphorylated p72^syk [p-Syk (SS1, SS2, SS3, SS4; and AA1, AA2, AA3, AA4)] and p72^syk[Syk (SS1, SS2, SS3, SS4, SS5, SS6, SS7; and AA1, AA2, AA3, AA4, AA5, AA6, AA7)]. Antibody against glycophorin C was used as a loading control. FIG. 10C and FIG. 10D show the quantitative analysis of the data presented as relative kinase expression [SSRBCs (n=7) and AARBCs (n=7)], and as relative kinase phosphorylation [SSRBCs (n=4) and AARBCs (n=4)]. […] Quantitative analysis of the data (normalized according to total kinase expression) is presented as fold change in p60-c-Src phosphorylation (FIG. 10E and FIG. 10F) and Syk phosphorylation (FIG. 10G). […]

[11] = test system: SSRBCs; assay: SSRBC adhesion to HUVECs after PTx/CTx treatment, with or without tyrosine kinase inhibitors, intermittent flow; assay type: cell-based, human; settings: 1 μM inhibitor before 1 μg/ml PTx; for inhibition of the effect of PTx on sickle cell adhesion: shear stress 2 dynes/cm^2, p<0.01
Experimental: FIG. 9 is a set of figures showing that activation of Gas protein increased SSRBC adhesion to endothelial cells via activation of tyrosine kinases. FIG. 9A is a schematic depiction of GPCR pathways along with inhibitors and stimuli of the kinases of these pathways regulating SSRBC adhesion. FIGS. 9B-E are a set of graphs showing adherence of RBCs which were sham-treated, or treated with Pertussis toxin (PTx) (0.5, 1 or 2 μg/ml) (FIGS. 9B-D), 1 μg/ml Cholera toxin (CTx) (FIG. 9B) or phenylarsine oxide (0.1, 10, 20, 40 and 80 μM) (FIG. 9E), or pretreated with 1 μM PP1, 1 μM PP2 or 1 μM piceatannol prior to treatment with 1 μg/ml PTx (FIG. 9C and FIG. 9D). Treated RBCs were tested for adhesion to HUVECs in intermittent flow conditions at different shear stresses. Data are presented as % adherent RBCs (FIG. 9B) or SSRBCs (FIG. 9C-FIG. 9E) at a shear stress of 2 dynes/cm^2. Each graph is representative of 3 different experiments. Error bars show standard error of the mean (SEM). *: p<0.001 compared to sham-treated RBCs; **: p<0.01 compared to PTx-treated RBCs.
Vaso-occlusion is associated with various types of physiological stress. β2-adrenergic receptors (β2AR) stimulation with catacholamines employs both Gas and &Gai (or Ga0) pathways. We first determined the Ga, Gas and/or Gai, in sickle cell regulating tyrosine kinase activation-mediated sickle cell adhesion to endothelial cells (FIG. 9A). Sickle cells adhered to some degree to endothelial cells under intermittent flow conditions at a shear stress of 2 dynes/cm^2. (FIGS. 9B-D). […] The selective Src-family kinase inhibitors, PP1 and PP2 (FIG. 9A), and the non-receptor tyrosine kinase p72^Syk inhibitor, piceatannol (FIG. 9A), inhibited the effect of PTx on sickle cell adhesion by 67±2.7%, 64±1.7% and 60 ±5.5%, respectively (p<0.01) (FIGS. 9C and 9D).

[12] = test system: p60-c-Src; assay: p60-c-Src phosphorylation in normal RBCs (Western blot); assay type: cell-based, human; settings: 1 μM PP1; normal RBCs by context (FIG. 10F)
Excerpt: as §1

[13] = test system: human sickle red cell; settings: systemic administration; cited from earlier work
[14] = test system: ERK; settings: 20 nM epinephrine; n=19; p<0.05

## N#CC(=C(/N)Sc1ccccc1N)/C(C#N)=C(\N)Sc1ccccc1N [U0126]
[1]
  sickle cell adhesion to TNFα-activated endothelial cells: reduced sickle cell adhesion
[2]
  sickle cell-induced PMN adhesion to endothelial cells: decreased sickle cell-induced PMN adhesion
[3]
  effect of hypoxia on ERK phosphorylation: decreased the effect of hypoxia on ERK phosphorylation
[4]; U0126 10 μM
  epinephrine-activated sickle cell adhesion: inhibited activated sickle cell adhesion

## COc1cc(F)c(F)c(Nc2ccc(I)cc2F)c1NS(=O)(=O)C1(C[C@H](O)CO)CC1 [RDEA119]
[5]
  adherence of normal human RBCs in enflamed vessels: no real adherence
[6]
  time to abrogation of leukocyte adhesion after administration: ≤ 10 min
[7]; nude mice pretreated with TNFα
  vaso-occlusion by treated sickle cells: no visible vase-occlusion
[7]; nude mice pretreated with TNFα, n=5, p<0.0001
  reduction of SSRBC adhesion compared to sham-treated SSRBCs: 88%
[7]; nude mice, versus 50±5.5% with sham-treated cells
  vessels and arterioles with normal blood flow: 86±3.3%
[8]
  effect of hypoxia on sickle cell adhesion to endothelial cells: almost completely inhibited
[9]; 0.025 mg/kg infused 120 min after TNFα
  inhibition of murine sickle RBC adhesion: 76%
[9]; 0.05 mg/kg infused 120 min after TNFα
  inhibition of murine sickle RBC adhesion: 99%
[9]; 0.1 mg/kg infused 120 min after TNFα
  inhibition of murine sickle RBC adhesion: 98%
[9]; lowest dose 0.025 mg/kg, effect sustained over time
  time to reversal of murine sickle RBC adhesion after drug administration: ≤ 10 min
[9]; p<0.05 for each RDEA119 dose (0.025, 0.05, 0.1 mg/kg)
  vessels with restored blood flow: 57%

## CC(C)(C)n1nc(-c2ccc(Cl)cc2)c2c(N)ncnc21 [PP2]
[10]
  PTx-increased p60-c-Src phosphorylation in sickle cells: to levels below baseline phosphorylation
[11]
  inhibition of the effect of PTx on sickle cell adhesion: 64±1.7%

## Cc1ccc(-c2nn(C(C)(C)C)c3ncnc(N)c23)cc1 [PP1]
[12]
  phosphorylation of p60-c-Src, inhibitor effect: inhibited
[10]
  PTx-increased p60-c-Src phosphorylation in sickle cells: to levels below baseline phosphorylation
[11]
  inhibition of the effect of PTx on sickle cell adhesion: 67±2.7%

## O=C1Nc2ccc(I)cc2/C1=C/c1cc(Br)c(O)c(Br)c1 [GW5074]
[3]
  effect of hypoxia on ERK phosphorylation: decreased the effect of hypoxia on ERK phosphorylation

## CC(C)=CCCC(C)=CCCC(C)=CCSc1ccccc1C(=O)O [farnesylthiosalicylic acid]
[3]
  effect of hypoxia on ERK phosphorylation: decreased the effect of hypoxia on ERK phosphorylation

## Oc1cc(O)cc(/C=C/c2ccc(O)c(O)c2)c1 [piceatannol]
[11]; Homo sapiens, HUVEC, shear stress 2 dynes/cm^2, p<0.01, read-out: inhibition of the effect of PTx on sickle cell adhesion
  inhibition at 1 µM: 60 ± 5.5%

## CC(C)NCC(O)COc1cccc2ccccc12 (centres unmarked) [propranolol]
[13]
  human sickle red cell adhesion and associated vasoocclusion in mice: inhibited human sickle red cell adhesion

## CNC[C@H](O)c1ccc(O)c(O)c1 [Epinephrine, epinephrine]
[14]
  phosphorylation of sickle cell ERK: increased phosphorylation of sickle cell ERK
[4]; shear stress 2 dynes/cm^2
  sickle cell adhesion to normal endothelial cells: increased sickle cell adhesion to normal endothelial cells
